Data taken from publication PMC5259778, “Candidate pheromone receptors of codling moth Cydia pomonella respond to pheromones and kairomones” (Scientific Reports, 2017).

Tests used:
CpomOrco + OR3 = molecular target: T1, CpomOrco + OR3 (Cydia pomonella, UniProt H9A5M3); test: Calcium imaging of HEK293T cells expressing CpomOrco + OR3; assay type: cell-based; settings: for amplitude of the calcium response (mean of the maximum response ± SEM): 500 μM, n = 151; for EC50: calcium response normalized to 250 μM VUAA3
T1 sequence (H9A5M3 1-426): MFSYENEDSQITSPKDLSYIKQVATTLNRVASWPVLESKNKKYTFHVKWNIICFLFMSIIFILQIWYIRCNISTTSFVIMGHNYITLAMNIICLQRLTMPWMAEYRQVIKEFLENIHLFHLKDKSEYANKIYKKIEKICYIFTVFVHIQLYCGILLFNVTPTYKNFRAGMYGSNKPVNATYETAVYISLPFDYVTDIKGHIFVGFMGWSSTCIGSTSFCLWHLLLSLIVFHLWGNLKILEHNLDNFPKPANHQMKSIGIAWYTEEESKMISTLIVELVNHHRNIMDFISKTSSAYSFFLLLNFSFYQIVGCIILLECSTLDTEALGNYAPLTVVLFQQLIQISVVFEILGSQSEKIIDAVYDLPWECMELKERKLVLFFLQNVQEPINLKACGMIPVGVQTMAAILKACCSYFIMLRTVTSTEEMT
T1 sequence (H9A5M2 1-473 partner): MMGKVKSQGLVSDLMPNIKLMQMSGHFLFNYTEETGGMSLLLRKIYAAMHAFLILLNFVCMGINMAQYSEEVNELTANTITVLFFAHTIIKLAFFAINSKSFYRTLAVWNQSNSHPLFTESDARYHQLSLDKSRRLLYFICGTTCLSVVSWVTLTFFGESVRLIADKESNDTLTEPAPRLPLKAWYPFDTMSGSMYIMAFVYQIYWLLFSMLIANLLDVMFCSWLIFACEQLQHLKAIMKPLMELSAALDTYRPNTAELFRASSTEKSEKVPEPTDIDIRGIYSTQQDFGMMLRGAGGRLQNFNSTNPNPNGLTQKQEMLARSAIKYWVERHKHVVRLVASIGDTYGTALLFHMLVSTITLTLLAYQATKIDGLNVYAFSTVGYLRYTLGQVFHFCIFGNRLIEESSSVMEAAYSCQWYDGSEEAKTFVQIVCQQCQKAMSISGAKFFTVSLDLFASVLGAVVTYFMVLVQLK
Method: HEK293T cells were grown in HEK cell media [Dulbecco’s modified Eagle’s medium containing 10% fetal bovine serum (MP Biomedicals, Solon, OH, USA), 2.0 mM L-glutamine, and 100 μg/mL Penicillin/Streptomycin (Invitrogen)] at 37 °C and 5% CO2. To test transient expression of CpomORs for calcium imaging or patch-clamp recording experiments, 35-mm petri dishes containing semi-confluent HEK293T cells were transiently transfected. To transfect cells with CpomOrco, we used 1.0 μg of pcDNA5/TO/CpomOrco DNA. In order to promote expression of the OR[51], we used double aliquots for pcDNA5/TO/CpomOR DNAs (2.0 μg), combined with 1.0 μg of pcDNA5/TO/CpomOrco for co-transfections (CpomOrco + ORs). […] In order to report candidate OR-expressing cells, expression of both fluorescent reporter genes was under the regulation of the same promoter for CpomOR genes (CMV). Transfection DNAs were dissolved in 100 μL sterile DMEM, mixed with 3.0 μL Calfectin (SignaGen, Rockville, MD, USA) following the recommended protocol.
Transfections were conducted overnight. HEK cell media was replaced with 1.0 mL fresh media to incubate cells at 37 °C for up to 6 h, at which point part of the cell culture was spread in the middle of a 35-mm plate as individual cells or small clusters. After 12 h of incubation at 37 °C and 5% CO2, cells were rinsed at the sides with 2.0 mL fresh HEK media. Cells were allowed to recover for at least 1 h prior to calcium imaging.
After incubation, the buffer was removed and cells were rinsed with 4.0 mL fresh HEK Ca^++ Ringer (mM: 140 NaCl, 2.0 CaCl2, 10 HEPES, pH 7.5), and placed on the stage of an inverted microscope (Olympus IX-71, Olympus Corp., Tokyo, Japan) equipped with a cooled CCD camera (ORCA R2, Hamamatsu, Hamamatsu City, Japan). Cells were continuously superfused with Ca^++ Ringer using two gravity fed perfusion contours. The stimulating contour washing the cells (~250 μL/min) was switched rapidly to the stimulus contour using a multi-channel rapid solution changer (RSC-160, Bio-Logic, Claix, France) under the software control of Clampex 9 (Molecular Devices, Sunnyvale, CA, USA).
Fluorescence imaging was performed using Imaging Workbench 6 software (INDEC BioSystems, Santa Clara, CA, USA). Each cell was assigned a region of interest (ROI) and changes in fluorescence intensity within each ROI were measured and expressed as the fractional change in fluorescence intensity (dF) or in some cases as dF/F0 where F0 is the basal fluorescence level before agonist application. […] Continuous traces of multiple responses were compensated for slow drift of the baseline fluorescence when necessary. All recordings were performed at room temperature (22–25 °C).
Compounds were diluted in either DMSO or ethanol (Sigma Aldrich) depending on their solubility properties. […]

CpomOR3 = test: Single sensillum recordings, CpomOR3 expressed in Drosophila ab3A OSNs; assay type: cell-based, Cydia pomonella; settings: dose loaded in the stimulus cartridge
Excerpt: To perform heterologous expression in D. melanogaster OSNs, CpomORs were amplified using primers in Table 2 and purified PCR products were cloned into the PCR8/GW/TOPO plasmid (Invitrogen) following the recommended protocol. Cassettes with inserts were then transferred from their PCR8/GW/TOPO plasmids to the destination vector (pUASg-HA.attB, constructed by E. Furger and J. Bischof, kindly provided by the Basler group, Zürich), using the Gateway LR Clonase II kit (Invitrogen). The integrity and orientation of inserts was confirmed by sequencing (Sanger sequencer, 3730xl). […]
CpomOR1 and CpomOR6a expressed in at1 OSNs, and CpomOR3 expressed in ab3A OSNs, were tested through single sensillum recordings (SSR). […] The reference electrode was manually inserted in the right eye of the fly, while the recording electrode was manoeuvred with a DC-3K micromanipulator equipped with a PM-10 piezo translator (Märzhäuser Wetzler GmbH, Wetzler, Germany) and inserted at the base of the determined sensilla. Signals coming from the olfactory sensory neurons were amplified 10 times with a probe (INR-02, Syntech, Hilversum, the Netherlands), digitally converted through an IDAC-4-USB (Syntech) interface, and visualized and analysed with the software Autospike v. […]

CpomOrco = CpomOrco (Cydia pomonella, UniProt H9A5M2); test: Calcium imaging of HEK293T cells expressing homomeric CpomOrco; assay type: cell-based; settings: peak amplitudes normalized to response at 1000 μM agonist, read-out: [A]1/2 half-effective concentration of agonist, calcium response
Method: HEK293T cells were grown in HEK cell media [Dulbecco’s modified Eagle’s medium containing 10% fetal bovine serum (MP Biomedicals, Solon, OH, USA), 2.0 mM L-glutamine, and 100 μg/mL Penicillin/Streptomycin (Invitrogen)] at 37 °C and 5% CO2. To test transient expression of CpomORs for calcium imaging or patch-clamp recording experiments, 35-mm petri dishes containing semi-confluent HEK293T cells were transiently transfected. To transfect cells with CpomOrco, we used 1.0 μg of pcDNA5/TO/CpomOrco DNA. In order to promote expression of the OR[51], we used double aliquots for pcDNA5/TO/CpomOR DNAs (2.0 μg), combined with 1.0 μg of pcDNA5/TO/CpomOrco for co-transfections (CpomOrco + ORs). […]
(§1) Fluorescence imaging was performed using Imaging Workbench 6 software (INDEC BioSystems, Santa Clara, CA, USA). Each cell was assigned a region of interest (ROI) and changes in fluorescence intensity within each ROI were measured and expressed as the fractional change in fluorescence intensity (dF) or in some cases as dF/F0 where F0 is the basal fluorescence level before agonist application. […] Continuous traces of multiple responses were compensated for slow drift of the baseline fluorescence when necessary. […]

CpomOrco + OR complexes = test: Calcium imaging of HEK293T cells expressing heteromeric CpomOrco + OR complexes; assay type: cell-based, Cydia pomonella
Method: HEK293T cells were grown in HEK cell media [Dulbecco’s modified Eagle’s medium containing 10% fetal bovine serum (MP Biomedicals, Solon, OH, USA), 2.0 mM L-glutamine, and 100 μg/mL Penicillin/Streptomycin (Invitrogen)] at 37 °C and 5% CO2. To test transient expression of CpomORs for calcium imaging or patch-clamp recording experiments, 35-mm petri dishes containing semi-confluent HEK293T cells were transiently transfected. To transfect cells with CpomOrco, we used 1.0 μg of pcDNA5/TO/CpomOrco DNA. In order to promote expression of the OR[51], we used double aliquots for pcDNA5/TO/CpomOR DNAs (2.0 μg), combined with 1.0 μg of pcDNA5/TO/CpomOrco for co-transfections (CpomOrco + ORs). To report expression for calcium imaging experiments, 1.0 μg of a separate plasmid DNA [pEBFP2-Nuc, a gift from Robert Campbell (Addgene plasmid # 14893[52])] carrying the coding sequence for a blue fluorescent protein (BFP) was used. In patch-clamp recordings, 1.0 μg of a separate plasmid DNA (pXOOM, Clontech) carrying the coding sequence for a green fluorescent protein (GFP) was used to report expression. In order to report candidate OR-expressing cells, expression of both fluorescent reporter genes was under the regulation of the same promoter for CpomOR genes (CMV). Transfection DNAs were dissolved in 100 μL sterile DMEM, mixed with 3.0 μL Calfectin (SignaGen, Rockville, MD, USA) following the recommended protocol. To estimate transfection efficiency, a parallel transfection was conducted using the positive control vector pcDNA5/TO/LACZ (Invitrogen) and staining with 0.1% XGal[53]. […]
as §1

CpomOR6a = test: Single sensillum recordings, CpomOR6a expressed in Drosophila at1 OSNs; assay type: cell-based, Cydia pomonella; settings: 10 μg per stimulus
Excerpt: (§2) To perform heterologous expression in D. melanogaster OSNs, CpomORs were amplified using primers in Table 2 and purified PCR products were cloned into the PCR8/GW/TOPO plasmid (Invitrogen) following the recommended protocol. Cassettes with inserts were then transferred from their PCR8/GW/TOPO plasmids to the destination vector (pUASg-HA.attB, constructed by E. Furger and J. Bischof, kindly provided by the Basler group, Zürich), using the Gateway LR Clonase II kit (Invitrogen). The integrity and orientation of inserts was confirmed by sequencing (Sanger sequencer, 3730xl). Transformant UAS-CpomOR3 and UAS-CpomOR1 lines were generated by Best Gene (Chino Hills, CA, USA), using the PhiC31 integrase system, while the transformant UAS-CpomOR6a line was generated in our labs. Briefly, recombinant pUASg-HA.attB-CpomOR plasmids were injected into embryos of a D. melanogaster line containing an attP insertion site within the third chromosome (genotype y1 M{vas-int.Dm}ZH-2A w*; M{3xP3-RFP.attP}ZH-86Fb), leading to non-random integration. To drive expression of CpomORs in at1 OSNs in place of the endogenous receptor Or67d, transformant UAS-CpomOR lines were crossed to the knock-in Or67d^GAL4 line (kindly provided by Barry Dickson) to generate double homozygous lines w^+;UAS-CpomOR; Or67d^GAL4. Additionally, to drive expression of CpomOR3 in ab3A OSNs, the UAS-CpomOR3 line was crossed to the Δhalo;Or22a-Gal4 mutant line[20][57]. To verify insertion of UAS-CpomORs constructs into the genome, gDNA was extracted and used as template in PCR with primers for the full ORF of CpomORs (Table 2).
(§3) CpomOR1 and CpomOR6a expressed in at1 OSNs, and CpomOR3 expressed in ab3A OSNs, were tested through single sensillum recordings (SSR). Three to 8-day-old flies were immobilized in 100 μL pipette tips with only the top half of the head protruding. The left antenna of each insect was gently pushed with a glass capillary against a double-sided adhesive tape placed on a piece of glass. This piece of glass and the pipette tip were fixed with dental wax on a microscope slide. Electrolytically sharpened tungsten electrodes (Harvard Apparatus Ltd, Edenbridge, United Kingdom) were used to penetrate the insect´s body. The reference electrode was manually inserted in the right eye of the fly, while the recording electrode was manoeuvred with a DC-3K micromanipulator equipped with a PM-10 piezo translator (Märzhäuser Wetzler GmbH, Wetzler, Germany) and inserted at the base of the determined sensilla. Signals coming from the olfactory sensory neurons were amplified 10 times with a probe (INR-02, Syntech, Hilversum, the Netherlands), digitally converted through an IDAC-4-USB (Syntech) interface, and visualized and analysed with the software Autospike v. 3.4 (Syntech). A constant flow of 0.65 m/s of humidified air (charcoal-filtered) was delivered through a glass tube to the antenna. The panel of odorants was given to the insect by inserting pipettes containing a piece of filter paper with the correspondent stimulus in a lateral hole of the glass tube and puffing a flow of 2.5 mL of air during 0.5 s through the pipette. For CpomOR1 and CpomOR6a the panel of odorants was prepared by applying 10 μL of a solution of 1.0 μg/μL of the compounds in Supplementary Dataset S2 and Supplementary Dataset S3, for a total amount of 10 μg per stimulus. In the case of CpomOR3, a similar dilution process was used for the dose response experiments of ethyl-(E,Z)-2,4-decadienoate and methyl-(E,Z)-2,4-decadienoate, as well for dose response of experiments of codlemone acetate in CpomOR6a. Compounds were diluted from concentrations ranging from 0.01 ng/μL to 10 μg/μL in decadic steps, allowing reaching concentrations from 100 pg to 100 μg per stimulus when 10 μL of the dilution was applied in the piece of filter paper. […]

CpomOR1 = test: Single sensillum recordings, CpomOR1 expressed in Drosophila at1 OSNs; assay type: cell-based, Cydia pomonella; settings: 10 μg per stimulus
Excerpt: as §2, §3

CCCCC/C=C\C=C\C(=O)OC [(E,Z)-MD, methyl (E,Z)-2,4-decadienoate]
amplitude of the calcium response (mean of the maximum response ± SEM) (CpomOrco + OR3): 10.40 ± 5.91 dF | EC50 (CpomOrco + OR3): 1080 ± 113 µM | minimum dose to elicit a response significantly different from the solvent (CpomOR3): 10 µg

CCc1ccc(NC(=O)CSc2nnc(-c3cccnc3)n2CC)cc1 [VUAA1, acetamide,N-(4-ethylphenyl)-2-[[4-ethyl-5-(3-pyridinyl)-4H-1,2,4-triazol-3-yl]thio]-]
EC50 (CpomOrco): ~520 µM | EC50 (CpomOrco + OR complexes; heteromeric complexes, peak amplitudes normalized to response at 1000 μM agonist, read-out: [A]1/2 half-effective concentration of agonist, calcium response): ~150 µM

CC(C)CN(C)c1nc(N)c(C(=O)N=C(N)N)nc1Cl [MIA, 5-(N-methyl-N-isobutyl) amiloride]
block of the VUAA3 activated calcium signal (CpomOrco + OR complexes; MIA 100 μM applied extracellularly, all heteromeric complexes, only partially reversible): almost completely blocked

CCCCC/C=C\C=C\C(=O)OCC [(E,Z)-ED, ethyl-(E,Z)-2,4-decadienoate]
amplitude of the calcium response (mean of the maximum response ± SEM) (CpomOrco + OR3): 15.07 ± 9.48 dF | EC50 (CpomOrco + OR3): 454 ± 120 µM | Spike/s (CpomOR6a; replicate 1): 2 Spike/s | Spike/s (CpomOR6a; replicate 2): -2 Spike/s | Spike/s (CpomOR6a; replicate 3): 8 Spike/s | Spike/s (CpomOR6a; replicate 4): 2 Spike/s | Spike/s (CpomOR6a; replicate 5): -14 Spike/s | Spike/s (CpomOR6a; replicate 6): 8 Spike/s | Spike/s (CpomOR6a; replicate 7): 4 Spike/s | Spike/s (CpomOR6a; replicate 8): -2 Spike/s | Spike/s (CpomOR6a; replicate 9): 14 Spike/s | minimum dose to elicit a response significantly different from the solvent (CpomOR3): 0.1 µg | Spikes/s (CpomOR1; replicate 1): -2 Spikes/s | Spikes/s (CpomOR1; replicate 2): 2 Spikes/s | Spikes/s (CpomOR1; replicate 3): 2 Spikes/s | Spikes/s (CpomOR1; replicate 4): 2 Spikes/s | Spikes/s (CpomOR1; replicate 5): 10 Spikes/s
